From article PMC6124754, “Characterization of new, efficient Mycobacterium tuberculosis topoisomerase-I inhibitors and their interaction with human ABC multidrug transporters” (PLoS ONE, 2018)
Converted amounts (≈) assume the structure as drawn. “Also recorded” adds a separate entry of the source.

Experiments:
human ABCB1 [1] = biological target: T1, human ABCB1 (Homo sapiens, UniProt P08183); assay: Cellular transport assay, Calcein-AM uptake in ABCB1-overexpressing PLB cells; assay type: cell-based; settings: for Effect on ABCB1 mediated transport (in words): PLB cells, compound 5 μM; for ABC transporter transport assay, ABCB1 (summary): S6 summary table; as to ABC transporter transport assay, ABCB1 (summary): key: 0: no observed effect; +: effect observed in the assay; In the ATPase assay showing only inhibition, the - sign is applied
Procedure: (§1) For cellular transport assays, mammalian PLB (lymphoblastoid) cell lines, overexpressing ABCB1 or ABCG2 were used. The parental PLB cell line was purchased from ATCC, and ABCB1 or ABCG2 overexpressing cell lines were established by using lentiviral vectors for human ABC transporters as described earlier in [29]. The transport assays were carried out in 96-well plates. 1x10^5 cells were incubated in the presence of 0.1 μM Calcein-AM or 1 μM DCV (Dye Cycler Violet) for the ABCB1 and for the ABCG2 assays, respectively. The assay was performed in HPMI medium (NaCl 120 mM, KCl 5 mM, MgCl2 0.4 mM, CaCl2 0.04 mM, HEPES 10 mM, NaHCO3 10 mM, glucose 10 mM, Na2HPO4 5 mM; pH 7.4). Fluorescence of the cells was detected using a Victor X3 plate reader (for Calcein, exc. at 485 nm, em. at 535 nm) or the Enspire 2300 (Perkin Elmer) plate reader (for DCV, exc. at 360 nm, em. at 440 nm). Kinetics of fluorescence intensity changes were analyzed to determine relative inhibition, compared to that of a reference agent, providing full inhibition of the ABC transporter. Two of the Vichem compounds examined (VCC979812 and VCC38977) were not compatible with the DCV uptake assay because of their intrinsic fluorescence, therefore for these two compounds ABCG2 transport inhibition was characterized by following mitoxantrone uptake. Mitoxantrone uptake was measured by flow cytometry (BD FACSCanto at 633 nm) by 20 minutes incubation in the presence of 7.5 μM mitoxantrone. Each compound was measured in at least three independent experiments with three parallels in each case. DMSO, used as a solvent of compounds had no effect in this assay at the applied concentration.

HFF cell line = assay: Cytotoxicity, PrestoBlue 72 h, HFF; assay type: cell-based, human; settings: Non-toxic = not toxic up to 20 μM
Procedure: (§2) The toxic effects of the selected MtTopo-I inhibitory Vichem compounds were tested in three cell lines, HFF (human foreskin fibroblast), HEK293 (human embryonic kidney) and A431 (human epidermoid carcinoma) cell lines, obtained from ATCC. Establishment of ABC transporter-expressing A431cell lines was achieved by retroviral transduction of the cells as described previously.
(§3) For cytotoxicity measurements the cells were seeded in a 96-well culture plate at 5,000 cells/well (A431, HEK293) or 6000 cells/well (HFF) and incubated overnight. […] After 72 hours of incubation viability was assessed by PrestoBlue® assay (Invitrogen). IC50 values were obtained by sigmoidal curve fitting in the GraphPad Prism software. All experiments were performed in triplicates and repeated at least in three independent experiments. DMSO, used as solvent of the compounds, had no effect on viability at the applied concentration.

MtTopo-I = biological target: T2, MtTopo-I (Mycobacterium tuberculosis, UniProt P9WG49); assay: DNA relaxation assay of supercoiled pUC18 DNA by MtTopo-I; assay type: biochemical; settings: minimum concentration providing complete inhibition
T2 construct: made in house; host or cells: E. coli

H37Rv Mtb strain = assay: H37Rv growth inhibition, resazurin reduction microplate assay (REMA); assay type: cell-based, Mycobacterium tuberculosis; settings: for Toxicity in H37Rv assay (summary): S6 summary table
human ABCG2 [2] = biological target: T3, human ABCG2 (Homo sapiens, UniProt Q9UNQ0); assay: Vanadate-sensitive ATPase activity assay in Sf9 membrane vesicles, ABCG2; assay type: biochemical; design: made in house; host or cells: Sf9 insect cells (baculovirus), membrane vesicles; ABCG2 ATPase, concentration at Vmax: unit not given here; settings: for ABC transporter ATPase assay, ABCG2 (summary): S6 summary table; for Effect on ABCG2-ATPase activity (in words): Sf9 membrane vesicles, 0.1–10 μM for stimulation, 50 μM for inhibition; for ABCG2 ATPase, concentration at Vmax: concentration at which Vmax was seen; for ABCG2 ATPase Vmax: vanadate-sensitive ATPase, from dose-response curves, basal 22±1.4
T3 sequence (Q9UNQ0 1-655): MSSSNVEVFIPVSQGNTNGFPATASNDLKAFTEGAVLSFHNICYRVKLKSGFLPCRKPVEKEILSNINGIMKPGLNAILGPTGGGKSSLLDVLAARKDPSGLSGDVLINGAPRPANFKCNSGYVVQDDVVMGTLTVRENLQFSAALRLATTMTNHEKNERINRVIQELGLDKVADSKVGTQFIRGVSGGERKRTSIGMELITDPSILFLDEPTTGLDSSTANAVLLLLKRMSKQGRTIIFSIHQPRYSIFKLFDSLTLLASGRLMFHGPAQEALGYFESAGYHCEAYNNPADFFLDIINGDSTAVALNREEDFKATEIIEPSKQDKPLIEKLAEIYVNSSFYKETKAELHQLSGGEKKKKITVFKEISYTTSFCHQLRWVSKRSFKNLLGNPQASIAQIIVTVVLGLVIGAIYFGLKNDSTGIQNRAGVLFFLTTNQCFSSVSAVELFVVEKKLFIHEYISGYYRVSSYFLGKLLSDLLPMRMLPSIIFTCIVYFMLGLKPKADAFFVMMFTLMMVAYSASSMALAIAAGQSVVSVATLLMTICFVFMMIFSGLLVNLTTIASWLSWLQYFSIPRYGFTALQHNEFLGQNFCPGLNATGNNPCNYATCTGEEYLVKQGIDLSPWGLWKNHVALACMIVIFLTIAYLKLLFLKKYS

human ABCG2 [3] = biological target: T3, human ABCG2; assay: Cellular transport assay, DCV or mitoxantrone uptake in ABCG2-overexpressing PLB cells; assay type: cell-based; design: expressed in transfected cells; host or cells: PLB (human lymphoblastoid) cells, lentiviral transduction; settings: for Effect on ABCG2 mediated transport (in words): PLB cells, compound 5 μM; for ABC transporter transport assay, ABCG2 (summary): S6 summary table; as to ABC transporter transport assay, ABCG2 (summary): key: 0: no observed effect; +: effect observed in the assay; In the ATPase assay showing only inhibition, the - sign is applied
Procedure: as §1

[4] = tested on: HFF, HEK293 and A431 cell lines; assay type: cell-based, human; settings: for Toxicity in mammalian cell lines (summary): human, 72 h
Procedure: as §2, §3

parental A431 cell line = assay: Cytotoxicity, PrestoBlue 72 h, parental A431; assay type: cell-based, human; settings: Non-toxic = not toxic up to 20 μM; for IC50: Homo sapiens, A-431, 72 h, read-out: Toxicity in parental A431 cell line, IC50
Procedure: as §2, §3

HEK293 cell line = assay: Cytotoxicity, PrestoBlue 72 h, HEK293; assay type: cell-based, human; settings: for Toxicity in HEK293 cell line, IC50: Non-toxic = not toxic up to 20 μM
Procedure: as §2, §3

human ABCB1 [5] = biological target: T1, human ABCB1; assay: Vanadate-sensitive ATPase activity assay in Sf9 membrane vesicles, ABCB1; assay type: biochemical; design: made in house; host or cells: Sf9 insect cells (baculovirus), membrane vesicles; ABCB1 ATPase Vmax: unit not given here; settings: for ABC transporter ATPase assay, ABCB1 (summary): S6 summary table; for Effect on ABCB1-ATPase activity (in words): Sf9 membrane vesicles, 0.1–10 μM for the stimulation in b53; for ABCB1 ATPase, concentration at Vmax: concentration at which Vmax was seen; for ABCB1 ATPase Vmax: vanadate-sensitive ATPase, from dose-response curves, basal 5.7±0.7; as to ABC transporter ATPase assay, ABCB1 (summary): key: 0: no observed effect; +: effect observed in the assay; In the ATPase assay showing only inhibition, the - sign is applied
[6] = tested on: ABCG2-overexpressing A431 cell line; settings: 72 h
[7] = tested on: ABCB1-overexpressing A431 cell line; settings: 72 h
[8] = minimum concentration providing 90% growth inhibition, 20 to 0.04 μM, N.I. = no inhibition observed up to 20 μM

T1 sequence (P08183 whole entry): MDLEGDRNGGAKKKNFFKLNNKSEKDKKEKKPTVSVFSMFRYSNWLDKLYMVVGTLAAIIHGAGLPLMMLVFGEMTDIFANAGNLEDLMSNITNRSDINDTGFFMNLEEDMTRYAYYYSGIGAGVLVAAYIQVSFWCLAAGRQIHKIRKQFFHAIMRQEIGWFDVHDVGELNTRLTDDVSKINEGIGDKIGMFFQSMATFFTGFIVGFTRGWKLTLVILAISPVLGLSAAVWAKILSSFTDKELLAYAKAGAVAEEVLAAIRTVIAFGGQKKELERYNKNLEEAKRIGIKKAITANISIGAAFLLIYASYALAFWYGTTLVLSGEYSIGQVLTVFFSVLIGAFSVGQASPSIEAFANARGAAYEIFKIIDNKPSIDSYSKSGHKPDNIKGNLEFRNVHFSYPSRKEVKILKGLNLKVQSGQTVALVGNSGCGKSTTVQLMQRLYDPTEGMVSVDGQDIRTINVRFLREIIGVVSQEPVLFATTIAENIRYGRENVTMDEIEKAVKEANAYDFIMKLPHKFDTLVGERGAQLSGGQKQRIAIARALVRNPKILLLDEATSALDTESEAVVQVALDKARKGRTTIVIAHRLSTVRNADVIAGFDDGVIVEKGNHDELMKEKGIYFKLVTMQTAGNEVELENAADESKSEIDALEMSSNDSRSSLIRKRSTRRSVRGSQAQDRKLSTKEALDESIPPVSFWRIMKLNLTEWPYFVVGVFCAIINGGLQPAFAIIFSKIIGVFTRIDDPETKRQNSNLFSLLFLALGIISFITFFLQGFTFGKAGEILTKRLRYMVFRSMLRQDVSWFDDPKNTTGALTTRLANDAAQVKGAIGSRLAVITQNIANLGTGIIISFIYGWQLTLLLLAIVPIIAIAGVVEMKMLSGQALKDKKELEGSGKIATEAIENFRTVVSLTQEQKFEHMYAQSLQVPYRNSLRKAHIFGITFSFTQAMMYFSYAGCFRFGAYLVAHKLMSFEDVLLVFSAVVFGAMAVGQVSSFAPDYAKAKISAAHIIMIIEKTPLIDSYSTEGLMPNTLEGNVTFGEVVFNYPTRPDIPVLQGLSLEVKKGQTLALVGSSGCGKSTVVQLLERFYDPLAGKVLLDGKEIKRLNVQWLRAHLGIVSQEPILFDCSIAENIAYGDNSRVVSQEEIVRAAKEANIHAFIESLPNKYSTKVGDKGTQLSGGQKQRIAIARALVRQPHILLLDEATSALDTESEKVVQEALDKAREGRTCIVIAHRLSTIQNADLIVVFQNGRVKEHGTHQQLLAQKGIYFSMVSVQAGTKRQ
T2 sequence (P9WG49 whole entry): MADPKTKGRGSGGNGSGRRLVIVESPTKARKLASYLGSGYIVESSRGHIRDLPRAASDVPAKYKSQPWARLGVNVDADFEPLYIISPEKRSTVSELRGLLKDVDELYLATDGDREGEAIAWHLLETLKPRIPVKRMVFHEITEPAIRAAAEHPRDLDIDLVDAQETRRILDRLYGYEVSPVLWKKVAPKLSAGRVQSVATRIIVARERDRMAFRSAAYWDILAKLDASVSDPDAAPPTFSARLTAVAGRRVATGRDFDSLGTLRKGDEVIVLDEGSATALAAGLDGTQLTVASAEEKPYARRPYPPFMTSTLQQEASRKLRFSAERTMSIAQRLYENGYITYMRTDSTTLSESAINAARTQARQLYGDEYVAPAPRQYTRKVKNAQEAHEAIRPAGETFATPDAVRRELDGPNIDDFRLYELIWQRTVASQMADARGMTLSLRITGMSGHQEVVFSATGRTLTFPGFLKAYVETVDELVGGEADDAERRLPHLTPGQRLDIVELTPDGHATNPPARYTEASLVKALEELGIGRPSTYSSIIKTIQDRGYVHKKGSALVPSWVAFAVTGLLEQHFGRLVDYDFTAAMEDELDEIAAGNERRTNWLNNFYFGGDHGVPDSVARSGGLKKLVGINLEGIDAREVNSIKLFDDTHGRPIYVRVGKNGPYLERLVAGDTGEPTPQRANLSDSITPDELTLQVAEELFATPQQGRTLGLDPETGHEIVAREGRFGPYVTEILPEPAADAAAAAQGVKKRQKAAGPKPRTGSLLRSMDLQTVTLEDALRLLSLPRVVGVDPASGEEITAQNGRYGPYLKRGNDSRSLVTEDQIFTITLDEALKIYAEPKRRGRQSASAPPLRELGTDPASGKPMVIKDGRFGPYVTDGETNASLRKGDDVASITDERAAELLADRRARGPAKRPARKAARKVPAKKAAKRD

| Structure (SMILES) | Effect on ABCB1 mediated transport (in words) (human ABCB1 [1]) | ABC transporter transport assay, ABCB1 (summary) (human ABCB1 [1]) | Toxicity in HFF cell line, IC50 (HFF cell line) | Complete inhibition of MtTopoI (MtTopo-I) | Toxicity in H37Rv assay (summary) (H37Rv Mtb strain) | ABC transporter ATPase assay, ABCG2 (summary) (human ABCG2 [2]) | Effect on ABCG2-ATPase activity (in words) (human ABCG2 [2]) | ABCG2 ATPase, concentration at Vmax (human ABCG2 [2]) | ABCG2 ATPase Vmax (human ABCG2 [2]) | Effect on ABCG2 mediated transport (in words) (human ABCG2 [3]) | ABC transporter transport assay, ABCG2 (summary) (human ABCG2 [3]) | Toxicity in mammalian cell lines (summary) [4] | Toxicity in parental A431 cell line, IC50 (parental A431 cell line) | Toxicity in HEK293 cell line, IC50 (HEK293 cell line) | ABC transporter ATPase assay, ABCB1 (summary) (human ABCB1 [5]) | Effect on ABCB1-ATPase activity (in words) (human ABCB1 [5]) | ABCB1 ATPase, concentration at Vmax (human ABCB1 [5]) | ABCB1 ATPase Vmax (human ABCB1 [5]) | MIC90 of compounds in H37Rv growth test (H37Rv Mtb strain; [8]) | IC50 (parental A431 cell line) | also measured |
| --- | --- | --- | --- | --- | --- | --- | --- | --- | --- | --- | --- | --- | --- | --- | --- | --- | --- | --- | --- | --- | --- |
| Cc1ccc(C)c(SCc2nc3cc4ccccc4cc3nc2CSc2cc(C)ccc2C)c1 [VCC891909] | no such transporter inhibitory effect | 0 | Non-toxic+ | 7.5 to 10 µM | + | 0 | no measurable effect | 0.01 | 25.3±5 | no such transporter inhibitory effect | 0 | 0 | Non-toxic | Non-toxic | 0 | no measurable effect | 3 µM | 7.8±1.2 | – | – | MIC90 (H37Rv Mtb strain; Mycobacterium tuberculosis, H37RV, minimum concentration providing 90% growth inhibition, 20 to 0.04 μM, N.I. = no inhibition observed up to 20 μM, read-out: MIC90 of compounds in H37Rv growth test): 10.4 µM (≈ 5 µg/mL); Growth inhibition of H37Rv mycobacteria (in words) (H37Rv Mtb strain; tested up to 20 μM): Mtb growth inhibitory effect |
| CC(C)CCNc1nc2cc3ccccc3cc2nc1NCCC(C)C [VCC979812] | – | + | – | 10 µM | 0 | 0 | – | 0.4 | 22±3 | – | + | 0/slight | – | Non-toxic | + | well measurable stimulatory effect; also recorded: slightly increased | 12.5 µM | 15.8±2 | N.I. | 19 µM | IC50 (HFF cell line; Homo sapiens, HFF, read-out: Toxicity in HFF cell line, IC50): 20 µM; Resistance modulation by ABCG2 (fold increase in IC50) ([6]; ABCG2-expressing versus parental A431 cells): 1±0.1; ABC transporter modified cytotoxicity, ABCG2 (summary) ([6]; human): 0; Resistance modulation by ABCB1 (fold increase in IC50) ([7]; ABCB1-expressing versus parental A431 cells): 1.1±0.08; ABC transporter modified cytotoxicity, ABCB1 (summary) ([7]; human): 0 |
| Cc1ccc(-n2nc(C(C)(C)C)cc2Nc2nc3ccccc3nc2NCCCO)cc1 [VCC389777] | – | + | Non-toxic | 7.5 to 10 µM | 0 | + | significantly stimulated; also recorded: slightly increased | 0.4 | 32.0±3.6 | – | + | 0 | Non-toxic | Non-toxic | + | well measurable stimulatory effect | 12.5 µM | 14.4±1.5 | N.I. | – | Toxicity in human cell lines (in words) [4]: non-toxic; Effect on ABCB1-ATPase activity (in words) (human ABCB1 [5]; listed as VCC38977): slightly increased |
| O=c1c(O)c(-c2ccc(O)c(O)c2)oc2cc(O)cc(O)c12 [quercetin, reference compound] | – | – | – | – | – | – | – | – | 38.5±1 | – | – | – | – | – | – | – | – | – | – | – | – |
| Brc1c2ccccc2c(Br)c2nc(-c3ccco3)c(-c3ccco3)nc12 [VCC450327] | no effect | 0 | Non-toxic | 0.1 µM | 0 | – | – | 0.4 | 27.2±0.8 | only moderately influence; also recorded: only a slight effect | + | 0 | Non-toxic | Non-toxic | – | – | 0.19 µM | 9.6±1.3 | N.I. | – | Toxicity in human cell lines (in words) [4]: non-toxic |
| CCc1c2c(nc3ccc(OC(=O)N4CCC(N5CCCCC5)CC4)cc13)-c1cc3c(c(=O)n1C2)COC(=O)[C@]3(O)CC [Irinotecan, reference compound] | – | – | Non-toxic | – | – | – | – | – | – | – | – | – | – | – | – | – | – | – | – | 8.6 µM | IC50 (HEK293 cell line; Homo sapiens, HEK293, Non-toxic = not toxic up to 20 μM, read-out: Toxicity in HEK293 cell line, IC50): 2.5 µM |
